Experimental data as given in patent publication US10092570B2 (Incyte Corporation, priority 2011, dated 2018).

molecular target: PI3Kδ (p110δ/p85α) (Homo sapiens (Human), UniProt O00329); experiment: Example A3: PI3Kδ scintillation proximity assay; format: biochemical; settings: scintillation proximity assay, 20 μM ATP, 4 nM PI3Kδ; read-out: PI3Kδ SPA IC50
Procedure: [γ-^33P]ATP (10 mCi/mL) was purchased from Perkin-Elmer (Waltham, Mass.). […] PI3Kδ (p110δ/p85α) was purchased from Millipore (Bedford, Mass.). ATP, MgCl2, DTT, EDTA, MOPS and CHAPS were purchased from Sigma-Aldrich (St. Louis, Mo.). Wheat Germ Agglutinin (WGA) YSi SPA Scintillation Beads was purchased from GE healthcare life sciences (Piscataway, N.J.).
The kinase reaction was conducted in polystyrene 384-well matrix white plate from Thermo Fisher Scientific in a final volume of 25 μL. Inhibitors were first diluted serially in DMSO and added to the plate wells before the addition of other reaction components. The final concentration of DMSO in the assay was 0.5%. The PI3K assays were carried out at room temperature in 20 mM MOPS, pH 6.7, 10 mM MgCl2, 5 mM DTT and CHAPS 0.03%. Reactions were initiated by the addition of ATP, the final reaction mixture consisted of 20 μM PIP2, 20 μM ATP, 0.2 μCi [γ-^33P] ATP, 4 nM PI3Kδ. […] 25 mM EDTA, 400 μM ATP. The final concentration of SPA beads was 1.0 mg/mL. After the plate sealing, plates were shaken overnight at room temperature and centrifuged at 1800 rpm for 10 minutes, the radioactivity of the product was determined by scintillation counting on Topcount (Perkin-Elmer). IC50 determination was performed by fitting the curve of percent control activity versus the log of the inhibitor concentration using the GraphPad Prism 3.0 software.

Sequence of PI3Kδ (p110δ/p85α) (O00329 whole entry): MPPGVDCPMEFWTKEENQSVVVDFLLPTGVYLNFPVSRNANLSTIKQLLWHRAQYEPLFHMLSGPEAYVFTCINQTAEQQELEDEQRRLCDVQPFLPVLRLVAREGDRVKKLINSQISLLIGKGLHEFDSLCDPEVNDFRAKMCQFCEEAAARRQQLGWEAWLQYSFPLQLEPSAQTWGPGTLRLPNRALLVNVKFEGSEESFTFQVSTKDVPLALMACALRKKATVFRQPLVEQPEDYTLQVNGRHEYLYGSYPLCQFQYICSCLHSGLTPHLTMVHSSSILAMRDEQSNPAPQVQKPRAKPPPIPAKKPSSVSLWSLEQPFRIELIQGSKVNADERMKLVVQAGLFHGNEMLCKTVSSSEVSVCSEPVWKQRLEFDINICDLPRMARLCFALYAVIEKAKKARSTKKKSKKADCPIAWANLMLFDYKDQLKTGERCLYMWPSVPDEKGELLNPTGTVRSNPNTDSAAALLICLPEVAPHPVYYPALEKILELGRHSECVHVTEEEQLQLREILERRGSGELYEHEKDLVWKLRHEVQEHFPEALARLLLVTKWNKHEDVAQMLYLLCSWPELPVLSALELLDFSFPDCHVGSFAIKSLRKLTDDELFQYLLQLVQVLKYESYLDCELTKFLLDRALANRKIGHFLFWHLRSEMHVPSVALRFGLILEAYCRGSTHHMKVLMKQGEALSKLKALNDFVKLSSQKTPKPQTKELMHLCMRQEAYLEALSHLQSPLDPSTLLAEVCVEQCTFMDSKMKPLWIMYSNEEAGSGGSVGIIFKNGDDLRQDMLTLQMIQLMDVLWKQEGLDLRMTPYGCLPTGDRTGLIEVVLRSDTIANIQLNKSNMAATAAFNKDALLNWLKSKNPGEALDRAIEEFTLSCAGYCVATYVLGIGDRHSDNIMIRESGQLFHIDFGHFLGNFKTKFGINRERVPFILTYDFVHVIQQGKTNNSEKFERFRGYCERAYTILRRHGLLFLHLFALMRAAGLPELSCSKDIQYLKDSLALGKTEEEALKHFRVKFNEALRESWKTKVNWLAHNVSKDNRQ
Sequence of PI3Kδ (p110δ/p85α) (P27986 whole entry partner): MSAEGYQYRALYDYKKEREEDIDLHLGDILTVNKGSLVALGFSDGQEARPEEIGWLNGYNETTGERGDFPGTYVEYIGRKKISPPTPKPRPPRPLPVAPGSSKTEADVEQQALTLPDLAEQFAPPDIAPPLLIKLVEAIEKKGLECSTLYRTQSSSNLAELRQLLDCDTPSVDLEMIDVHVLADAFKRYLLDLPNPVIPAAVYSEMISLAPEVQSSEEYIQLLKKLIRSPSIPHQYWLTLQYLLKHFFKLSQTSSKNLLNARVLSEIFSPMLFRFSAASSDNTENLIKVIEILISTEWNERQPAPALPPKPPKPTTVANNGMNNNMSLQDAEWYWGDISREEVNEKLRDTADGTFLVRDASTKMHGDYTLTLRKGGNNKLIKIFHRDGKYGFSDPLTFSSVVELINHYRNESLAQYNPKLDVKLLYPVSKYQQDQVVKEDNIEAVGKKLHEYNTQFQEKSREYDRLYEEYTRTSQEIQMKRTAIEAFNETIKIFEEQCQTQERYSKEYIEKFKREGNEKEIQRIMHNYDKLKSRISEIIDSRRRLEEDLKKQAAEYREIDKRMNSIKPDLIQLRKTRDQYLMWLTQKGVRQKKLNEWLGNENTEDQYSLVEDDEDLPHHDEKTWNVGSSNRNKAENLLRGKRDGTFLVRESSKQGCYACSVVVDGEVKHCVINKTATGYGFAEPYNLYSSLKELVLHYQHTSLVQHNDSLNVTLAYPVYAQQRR

Compound	IC50
4-[1-(4-Amino-3-methyl-1H-pyrazolo[3,4-d]pyrimidin-1-yl)ethyl]-6-chloro-2-[1-(2-hydroxyethyl)azetidin-3-yl]-3-methoxybenzonitrile-d4 [Example 297]	< 10 nM
COc1c(C(C)n2nc(C)c3c(N)ncnc32)cc(Cl)c(C)c1C1CN(C)C1 (racemic) [Example 5, 1-{1-[5-chloro-2-methoxy-4-methyl-3-(1-methylazetidin-3-yl)phenyl]ethyl}-3-methyl-1H-pyrazolo[3,4-d]pyrimidin-4-amine]	< 10 nM
CCN1CC(c2c(C)c(Cl)cc(C(C)n3nc(C)c4c(N)ncnc43)c2OC)C1 (racemic) [Example 6, 1-{1-[5-Chloro-3-(1-ethylazetidin-3-yl)-2-methoxy-4-methylphenyl]ethyl}-3-methyl-1H-pyrazolo[3,4-d]pyrimidin-4-amine]	< 10 nM
COc1c(C(C)n2nc(C)c3c(N)ncnc32)cc(Cl)c(C)c1C1CN(CC(C)C)C1 (racemic) [Example 7, 1-{1-[5-Chloro-3-(1-isobutylazetidin-3-yl)-2-methoxy-4-methylphenyl]ethyl}-3-methyl-1H-pyrazolo[3,4-d]pyrimidin-4-amine]	< 10 nM
COCCN1CC(c2c(C)c(Cl)cc(C(C)n3nc(C)c4c(N)ncnc43)c2OC)C1 (racemic) [Example 9, 1-(1-{5-Chloro-2-methoxy-3-[1-(2-methoxyethyl)azetidin-3-yl]-4-methylphenyl}ethyl)-3-methyl-1H-pyrazolo[3,4-d]pyrimidin-4-amine]	< 10 nM
CNC(=O)N1CC(c2c(C)c(Cl)cc(C(C)n3nc(C)c4c(N)ncnc43)c2OC)C1 (racemic) [Example 10, 3-{3-[1-(4-Amino-3-methyl-1H-pyrazolo[3,4-d]pyrimidin-1-yl)ethyl]-5-chloro-2-methoxy-6-methylphenyl}-N-methylazetidine-1-carboxamide]	< 10 nM
COc1c(C(C)n2ccc(=O)c3c(N)ncnc32)cc(Cl)c(C)c1-c1cccnc1 (racemic) [Example 28, 4-Amino-8-[1-(5-chloro-2-methoxy-4-methyl-3-pyridin-3-ylphenyl)ethyl]pyrido[2,3-d]pyrimidin-5(8H)-one bis(trifluoroacetate)]	< 10 nM
COc1c(C(C)n2ccc(=O)c3c(N)ncnc32)cc(Cl)c(C)c1C1CN(C(C)C)C1 (racemic) [Example 34, 4-Amino-8-{1-[5-chloro-3-(1-isopropylazetidin-3-yl)-2-methoxy-4-methylphenyl]ethyl}pyrido[2,3-d]pyrimidin-5(8H)-one]	< 10 nM
COc1c(C(C)n2cc(C)c3c(N)ncnc32)cc(Cl)c(C)c1-c1ccc(C(=O)N(C)C)nc1 (racemic) [Example 42, 5-{3-[1-(4-Amino-5-methyl-7H-pyrrolo[2,3-d]pyrimidin-7-yl)ethyl]-5-chloro-2-methoxy-6-methylphenyl}-N,N-dimethylpyridine-2-carboxamide]	< 10 nM
CCOc1c(C(C)n2ccc(=O)c3c(N)ncnc32)cc(Cl)c(C#N)c1-c1cncc(S(C)(=O)=O)c1 (racemic) [Example 46, 4-(1-(4-amino-5-oxopyrido[2,3-d]pyrimidin-8(5H)-yl)ethyl)-6-chloro-3-ethoxy-2-(5-(methylsulfonyl)pyridin-3-yl)benzonitrile]	< 10 nM
COc1c(C(C)n2nc(C)c3c(N)ncnc32)cc(Cl)c(C)c1C1CN(C2COC2)C1 (racemic) [Example 63, 1-{1-[5-chloro-2-methoxy-4-methyl-3-(1-oxetan-3-ylazetidin-3-yl)phenyl]ethyl}-3-methyl-1H-pyrazolo[3,4-d]pyrimidin-4-amine]	< 10 nM
COc1c(C(C)n2nc(C)c3c(N)ncnc32)cc(Cl)c(C)c1C1CN(C2CCOCC2)C1 (racemic) [Example 64, 1-(1-{5-chloro-2-methoxy-4-methyl-3-[1-(tetrahydro-2H-pyran-4-yl)azetidin-3-yl]phenyl}ethyl)-3-methyl-1H-pyrazolo[3,4-d]pyrimidin-4-amine]	< 10 nM
COc1c(C(C)n2nc(C)c3c(N)ncnc32)cc(Cl)c(F)c1C1CN(CCO)C1 (racemic) [Example 71, 2-(3-{3-[1-(4-Amino-3-methyl-1H-pyrazolo[3,4-d]pyrimidin-1-yl)ethyl]-5-chloro-6-fluoro-2-methoxyphenyl}azetidin-1-yl)ethanol]	< 10 nM

Other lines, results leading:

IC50	Compound
< 10 nM	CCOc1c(C(C)n2nc(I)c3c(N)ncnc32)cc(Cl)c(C)c1-c1ccc(C(=O)N(C)C)nc1 (racemic) [Example 15, 5-{3-[1-(4-Amino-3-iodo-1H-pyrazolo[3,4-d]pyrimidin-1-yl)ethyl]-5-chloro-2-ethoxy-6-methylphenyl}-N,N-dimethylpyridine-2-carboxamide]
< 10 nM	CNC(=O)c1cc(-c2c(C)c(Cl)cc(C(C)n3nc(C)c4c(N)ncnc43)c2OC)ccn1 (racemic) [Example 17, 4-(3-(1-(4-amino-3-methyl-1H-pyrazolo[3,4-d]pyrimidin-1-yl)ethyl)-5-chloro-2-methoxy-6-methylphenyl)-N-methylpicolinamide]
< 10 nM	COc1c(C(C)n2nc(C)c3c(N)ncnc32)cc(Cl)c(C)c1-c1ccnc(C(=O)NCCO)c1 (racemic) [Example 18, 4-{3-[1-(4-Amino-3-methyl-1H-pyrazolo[3,4-d]pyrimidin-1-yl)ethyl]-5-chloro-2-methoxy-6-methylphenyl}-N-(2-hydroxyethyl)pyridine-2-carboxamide]
< 10 nM	CCNC(=O)c1c(C)c(Cl)cc(C(C)n2nc(C)c3c(N)ncnc32)c1-c1cc(F)cc(F)c1 (racemic) [Example 37, 6-[1-(4-amino-3-methyl-1H-pyrazolo[3,4-d]pyrimidin-1-yl)ethyl]-4-chloro-N-ethyl-3′,5′-difluoro-3-methylbiphenyl-2-carboxamide]
< 10 nM	CCOc1c(C(C)n2nc(C)c3c(N)ncnc32)cc(Cl)c(C#N)c1-c1cncc(S(C)(=O)=O)c1 (racemic) [Example 43, 4-[1-(4-amino-3-methyl-1H-pyrazolo[3,4-d]pyrimidin-1-yl)ethyl]-6-chloro-3-ethoxy-2-[5-(methylsulfonyl)pyridin-3-yl]benzonitrile]
< 10 nM	CCOc1c(C(C)n2nc(C)c3c(N)ncnc32)cc(Cl)c(C#N)c1-c1ccc(C(=O)N(C)C)nc1 (racemic) [Example 44, 5-(3-(1-(4-amino-3-methyl-1H-pyrazolo[3,4-d]pyrimidin-1-yl)ethyl)-5-chloro-6-cyano-2-ethoxyphenyl)-N,N-dimethylpicolinamide]
< 10 nM	CCOc1c(C(C)n2ccc(=O)c3c(N)ncnc32)cc(Cl)c(C#N)c1-c1ccc(C(=O)N(C)C)nc1 (racemic) [Example 45, 5-{3-[1-(4-amino-5-oxopyrido[2,3-d]pyrimidin-8(5H)-yl)ethyl]-5-chloro-6-cyano-2-ethoxyphenyl}-N,N-dimethylpyridine-2-carboxamide]
< 10 nM	CCOc1c(C(C)n2nc(-c3ccc(C(=O)NC)nc3)c3c(N)ncnc32)cc(Cl)c(C)c1-c1ccc(C(=O)N(C)C)nc1 (racemic) [Example 59, 5-{3-[1-(4-amino-3-{6-[(methylamino)carbonyl]pyridin-3-yl}-1H-pyrazolo[3,4-d]pyrimidin-1-yl)ethyl]-5-chloro-2-ethoxy-6-methylphenyl}-N,N-dimethylpyridine-2-carboxamide tris(trifluoroacetate)]
< 10 nM	CCOc1c(C(C)n2nc(C(F)F)c3c(N)ncnc32)cc(Cl)c(C)c1-c1ccc(C(=O)N(C)C)nc1 (racemic) [Example 82, 5-(3-{1-[4-Amino-3-(difluoromethyl)-1H-pyrazolo[3,4-d]pyrimidin-1-yl]ethyl}-5-chloro-2-ethoxy-6-methylphenyl)-N,N-dimethylpyridine-2-carboxamide bis(trifluoroacetate)]
< 10 nM	CCNC(=O)c1c(C)c(Cl)cc(C(C)n2nc(-c3cn[nH]c3)c3c(N)ncnc32)c1OCC (racemic) [Example 87, 3-{1-[4-Amino-3-(1H-pyrazol-4-yl)-1H-pyrazolo[3,4-d]pyrimidin-1-yl]ethyl}-5-chloro-2-ethoxy-N-ethyl-6-methylbenzamide]
< 10 nM	CCNC(=O)c1c(C)c(Cl)cc(C(C)n2nc(-c3cc(O)cc(F)c3)c3c(N)ncnc32)c1OCC (racemic) [Example 88, 3-{1-[4-Amino-3-(3-fluoro-5-hydroxyphenyl)-1H-pyrazolo[3,4-d]pyrimidin-1-yl]ethyl}-5-chloro-2-ethoxy-N-ethyl-6-methylbenzamide]
< 10 nM	CCNC(=O)c1c(C)c(Cl)cc(C(C)n2nc(-c3ccc4oc(N)nc4c3)c3c(N)ncnc32)c1OCC (racemic) [Example 89, 3-(1-(4-Amino-3-(2-aminobenzo[d]oxazol-5-yl)-1H-pyrazolo[3,4-d]pyrimidin-1-yl)ethyl)-5-chloro-2-ethoxy-N-ethyl-6-methylbenzamide]
< 10 nM	CCNC(=O)c1c(C)c(Cl)cc(C(C)n2nc(-c3ccc4nc(N)sc4c3)c3c(N)ncnc32)c1OCC (racemic) [Example 90, 3-{1-[4-Amino-3-(2-amino-1,3-benzothiazol-6-yl)-1H-pyrazolo[3,4-d]pyrimidin-1-yl]ethyl}-5-chloro-2-ethoxy-N-ethyl-6-methylbenzamide]
